# According to patent US9629894B2, “Magnesium-containing oxytocin formulations and methods of use” (Trigemina, Inc., priority 2015, dated 2017):
# What was measured:
# [1] = system: rat model of facial thermal nociception; test: Rat model of facial thermal nociception: cheek withdrawal latency to radiant heat after nasal administration; assay type: in vivo; settings: for analgesic effect (elevation in latency to withdrawal): 15-300 min
# Procedure: The heat from a projector lamp was focused on the pre-shaved cheek of rats and the intensity was varied to obtain a withdrawal response with a latency of between 6.5 and 8.5 seconds. The intensity applied to achieve such latencies was recorded for each animal. Once stable/acceptable baseline values were obtained, the average latencies for each rat were calculated. After baseline cheek withdrawal latencies were determined for all rats, each rat received a single nasal administration of either normal saline, 15% magnesium chloride in water, or 1% magnesium lactate in water according to the method developed by Frey (Thorne, et al. Neuroscience., 127: 481-496 (2004)). Briefly, rats (under urethane anesthesia) were placed in a supine position with a rolled pad (2×2 gauze) inserted under the dorsal neck to extend the head back toward the supporting surface. The upper surface of the neck was kept horizontal throughout the dosing procedure to maintain the drug solution in the nasal cavity and minimize dripping down the nasopharynx. A 6 μL drop of the respective drug solution was delivered off the tip of a small pipette and presented to the nares on the left side of the rat while occluding the opposite nares. One drop was administered every 2 minutes, alternating between each nares (thus amounting to a four minute interval between doses to the same nares). Each nostril received 4 drops, totaling a combined volume of 48 μL (8 drops of 6 μL each). Drug solutions were coded in order to keep the experimenter blinded as to the substances delivered. Left cheek withdrawal latencies in response to radiant heat stimulation were then measured over the next 3 hours. Withdrawal latencies were measured prior to nasal administration and at 1, 2, and 3 hours post-treatment.
# (§1) One of 4 concentrations of dibasic magnesium citrate (1:1 Mg/citrate) was applied to rats and the effects of these applications on responses to noxious thermal stimulation of the face were assessed as described above. Each rat received a single nasal administration of 3, 6, 10, or 12% magnesium citrate in water (6 rats/group) according to the method described above. Left cheek withdrawal latencies in response to radiant heat stimulation were then measured over the following 300 minutes. Withdrawal latencies were measured prior to nasal administration and at 15, 30, 45, 60, 120, 180, 240, and 300 min post-treatment.
# as §1, with “3 doses” for “4 concentrations”, “oxytocin in buffered saline” for “dibasic magnesium citrate (1:1 Mg/citrate)”, “1, 4,” for “3, 6, 10,”, “8 μg oxytocin” for “12% magnesium citrate”, “aqueous solution” for “water”
# Aqueous solutions containing a combination of magnesium citrate at one of 3 concentrations with oxytocin at one of 3 doses were applied nasally in rats and changes in withdrawal response latency were measured as above. Each rat received a single nasal administration of 1, 4, or 8 μg of oxytocin in aqueous solution containing 3, 6, or 12% magnesium citrate according to the method described above. Left cheek withdrawal latencies in response to radiant heat stimulation were then measured over the following 300 minutes. Withdrawal latencies were measured prior to nasal administration and at 15, 30, 45, 60, 120, 180, 240, and 300 min post-treatment.
# Difference scores were generated for each time point after dosing by comparing the respective withdrawal response latency to pre-dosing (baseline) values.
# [2] = system: head, neck and shoulder pain; test: Patient with chronic tension-type headache with head, neck and shoulder pain, oxytocin nasal sprays; assay type: in vivo, human
# Source text: A patient with chronic tension-type headache reported having intense pain in their head, neck and shoulders. The patient took 4 sprays of 7.5 IU/spray oxytocin for a dose of 30 units, at which point their headache pain was gone, but the neck and shoulder pain remained. […] Thus, a higher dose was necessary to affect neck and shoulder pain than was necessary to inhibit head pain in the same patient.
# [3] = system: rat paw inflammation model; test: Rat paw inflammation model (complete Freund's adjuvant in forepaw), force withdrawal threshold to mechanical stimulation; assay type: in vivo; settings: nasal, FIG. 8
# Procedure: The analgesic effect of nasally administered oxytocin on cervical nerve-associated inflammatory pain was assessed in a rat paw inflammation model (Martin et al., Pain 1999, 82:199-205). Oxytocin was nasally administered at one of three doses (193, 385 or 768 micrograms in 48 microliters) and force withdrawal thresholds in grams were determined following mechanical stimulation of the inflamed area (forepaw), at regular intervals over the next three hours, and compared against those of vehicle (phosphate buffered saline) treated rats. Injection of complete Freund's adjuvant into the left forepaw of rats produced a robust inflammation of that paw as well as a substantial decrease in the force necessary to elicit a withdrawal response (mechanical allodynia).
# [4] = 4 sprays of 7.5 IU/spray oxytocin, dose of 30 units
compound,measurement,setting,value
[Cl-].[Cl-].[Mg+2] [magnesium chloride],analgesia at 2 and 3 hours after dosing,"[1]; 15% magnesium chloride in water, nasal, 2 and 3 hours",analgesia continuing
same,analgesic effect compared to nasal saline treated rats,"[1]; 15% magnesium chloride in water, nasal, 1 hour",strong analgesic effect
CC(O)C(=O)[O-].CC(O)C(=O)[O-].[Mg+2] (centres unmarked) [magnesium lactate],analgesic effect (withdrawal latency),"[1]; 1% magnesium lactate in water, nasal, rats",mild analgesic effect
same,latencies at the 2 and 3 hour time points,"[1]; 1% magnesium lactate in water, nasal, rats, 2 and 3 hours",still substantially elevated
same,raising response latencies (withdrawal latency to noxious heat),"[1]; 1% magnesium lactate in water, single nasal administration 48 μL, rats",approximately 1.5 s
"CC[C@H](C)[C@@H]1NC(=O)[C@H](Cc2ccc(O)cc2)NC(=O)[C@@H](N)CSSC[C@@H](C(=O)N2CCC[C@H]2C(=O)N[C@@H](CC(C)C)C(=O)NCC(N)=O)NC(=O)[C@H](CC(N)=O)NC(=O)[C@H](CCC(N)=O)NC1=O [oxytocin, Cys-Tyr-Ile-Gln-Asn-Cys-Pro-Leu-Gly]",withdrawal latency,"[1]; 1 μg oxytocin, nasal",no increase
same,analgesic effect (elevation in latency to withdrawal),"[1]; 1, 4 or 8 μg oxytocin in aqueous solution, nasal, FIG. 3",clear dose-dependent analgesic effect
same,latency to withdrawal in response to noxious cheek heating,"[1]; 4 and 8 μg oxytocin, nasal",robust increase in latency to withdrawal
same,headache pain,[2]; [4],gone
same,neck and shoulder pain,[2]; [4],remained
same,neck and shoulder pain,"[2]; additional 8-10 sprays, or a total of 60-75 IU",receded and ceased
same,reversal of the mechanical allodynia resulting from inflammation,"[3]; higher 2 doses, 385 or 768 micrograms in 48 microliters",statistically significant partial reversal
same,increasing pain thresholds (force withdrawal threshold),"[3]; lowest dose, 193 micrograms in 48 microliters",ineffective
magnesium citrate,analgesic effect (elevation in latency to withdrawal),"[1]; 3, 6, 10 or 12% magnesium citrate in water, nasal, FIG. 2",clear dose-dependent analgesic effect
